How the values were obtained:
TFEB = assay: High content screen measuring TFEB nuclear accumulation (TFEB nuclear/cytosol ratio) in BEAS-2B cells stably expressing TFEB-EGFP; assay type: cell-based, human; details: 18 hours incubation
In short: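 BEAS-2B cells stably expressing TFEB-EGFP (~2300–2500 per well) pre-incubated 8 hours, then exposed to serially diluted compounds (DMEM low glucose, 2% FBS) for 18 hours, PFA-fixed and DAPI-stained. Imaged nuclear (DAPI mask) vs cytosolic (expanded mask) TFEB-GFP; activity = minimal concentration raising nuclear/cytosol ratio by 25%.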

BEAS-2B cells = assay: Toxicity: compound concentration needed to induce greater than 50 percent of cell loss; assay type: cell-based, human; details: 18 hours incubation
In short: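 BEAS-2B cells stably expressing TFEB-EGFP treated with serial compound dilutions for 18 h, then PFA-fixed, DAPI-stained and imaged. Toxicity scored as the concentration causing >50% cell loss, binned as ≥25 μM, <25 and >1 μM, or ≤1 μM ("+++").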

COc1cccc2nc(-c3ccncc3)nc(Nc3ccc4[nH]ccc4c3)c12 [Compound 109]
efficacy (minimal compound concentration needed to increase TFEB nuclear/cytosol ratio by 25%) (TFEB): +++ (“+++” equals ≤1 μM)
toxicity (compound concentration needed to induce greater than 50 percent of cell loss) (BEAS-2B cells): + (cell loss of greater than 50 percent at a concentration that equals or is greater than 25 μM was represented as)

Fc1ccc2nc(-c3ccncc3)nc(Nc3ccc4[nH]ccc4c3)c2c1 [Compound 110]
efficacy (minimal compound concentration needed to increase TFEB nuclear/cytosol ratio by 25%) (TFEB): +++ (“+++” equals ≤1 μM)
toxicity (compound concentration needed to induce greater than 50 percent of cell loss) (BEAS-2B cells): + (cell loss of greater than 50 percent at a concentration that equals or is greater than 25 μM was represented as)

COc1cc(-n2c(=O)c3ccccc3n(CC(=O)Nc3ccc(C(C)C)cc3)c2=O)cc(OC)c1OC [Compound 214]
efficacy (minimal compound concentration needed to increase TFEB nuclear/cytosol ratio by 25%) (TFEB): + (“+” equals >25 μM)
toxicity (compound concentration needed to induce greater than 50 percent of cell loss) (BEAS-2B cells): + (cell loss of greater than 50 percent at a concentration that equals or is greater than 25 μM was represented as)

CCc1nc2ccc(Nc3nc(-c4ccncc4)nc4c(C)cccc34)cc2s1 [Compound 148]
efficacy (minimal compound concentration needed to increase TFEB nuclear/cytosol ratio by 25%) (TFEB): +++ (“+++” equals ≤1 μM)
toxicity (compound concentration needed to induce greater than 50 percent of cell loss) (BEAS-2B cells): + (cell loss of greater than 50 percent at a concentration that equals or is greater than 25 μM was represented as)

O=C(Cn1c(=O)n(-c2ccccc2)c(=O)c2ccccc21)N1CCOCC1 [Compound 230]
efficacy (minimal compound concentration needed to increase TFEB nuclear/cytosol ratio by 25%) (TFEB): + (“+” equals >25 μM)
toxicity (compound concentration needed to induce greater than 50 percent of cell loss) (BEAS-2B cells): + (cell loss of greater than 50 percent at a concentration that equals or is greater than 25 μM was represented as)

c1ccc2c(Nc3cccc4[nH]ccc34)nc(-c3ccncc3)nc2c1 [Compound 97]
efficacy (minimal compound concentration needed to increase TFEB nuclear/cytosol ratio by 25%) (TFEB): +++ (“+++” equals ≤1 μM)
toxicity (compound concentration needed to induce greater than 50 percent of cell loss) (BEAS-2B cells): + (cell loss of greater than 50 percent at a concentration that equals or is greater than 25 μM was represented as)

c1cnc2nc(-c3ccncc3)nc(Nc3ccc4[nH]ncc4c3)c2c1 [Compound 80]
efficacy (minimal compound concentration needed to increase TFEB nuclear/cytosol ratio by 25%) (TFEB): ++ (“++” equals between ≤25 μM and >1 μM)
toxicity (compound concentration needed to induce greater than 50 percent of cell loss) (BEAS-2B cells): + (cell loss of greater than 50 percent at a concentration that equals or is greater than 25 μM was represented as)

c1ccc2c(Nc3ccc4c(c3)NCCN4)nc(-c3ccncc3)nc2c1 [Compound 42]
efficacy (minimal compound concentration needed to increase TFEB nuclear/cytosol ratio by 25%) (TFEB): +++ (“+++” equals ≤1 μM)
toxicity (compound concentration needed to induce greater than 50 percent of cell loss) (BEAS-2B cells): + (cell loss of greater than 50 percent at a concentration that equals or is greater than 25 μM was represented as)

Fc1cccc2c(Nc3cc(F)c4[nH]ccc4c3)nc(-c3ccncc3)nc12 [Compound 158]
efficacy (minimal compound concentration needed to increase TFEB nuclear/cytosol ratio by 25%) (TFEB): +++ (“+++” equals ≤1 μM)
toxicity (compound concentration needed to induce greater than 50 percent of cell loss) (BEAS-2B cells): + (cell loss of greater than 50 percent at a concentration that equals or is greater than 25 μM was represented as)

c1cc(-c2cc3cnccc3c(Nc3ccc4[nH]c(C5CC5)cc4c3)n2)ccn1 [Compound 399]
efficacy (minimal compound concentration needed to increase TFEB nuclear/cytosol ratio by 25%) (TFEB): +++ (“+++” equals ≤1 μM)
toxicity (compound concentration needed to induce greater than 50 percent of cell loss) (BEAS-2B cells): + (cell loss of greater than 50 percent at a concentration that equals or is greater than 25 μM was represented as)

c1cc(-c2cc3cnccc3c(Nc3ccc4[nH]ccc4c3)n2)ccn1 [Compound 397]
efficacy (minimal compound concentration needed to increase TFEB nuclear/cytosol ratio by 25%) (TFEB): ++ (“++” equals between ≤25 μM and >1 μM)
toxicity (compound concentration needed to induce greater than 50 percent of cell loss) (BEAS-2B cells): + (cell loss of greater than 50 percent at a concentration that equals or is greater than 25 μM was represented as)

c1ccc2c(Nc3ccc4[nH]ccc4c3)nc(-c3ccncc3)cc2c1 [Compound 49]
efficacy (minimal compound concentration needed to increase TFEB nuclear/cytosol ratio by 25%) (TFEB): + (“+” equals >25 μM)
toxicity (compound concentration needed to induce greater than 50 percent of cell loss) (BEAS-2B cells): + (cell loss of greater than 50 percent at a concentration that equals or is greater than 25 μM was represented as)

Cc1nc2cc(Cl)c(Nc3nc(-c4ccncc4)nc4ccccc34)cc2o1 [Compound 143]
efficacy (minimal compound concentration needed to increase TFEB nuclear/cytosol ratio by 25%) (TFEB): +++ (“+++” equals ≤1 μM)
toxicity (compound concentration needed to induce greater than 50 percent of cell loss) (BEAS-2B cells): + (cell loss of greater than 50 percent at a concentration that equals or is greater than 25 μM was represented as)

c1ccc2c(Nc3ccc4cn[nH]c4c3)nc(-c3ccncc3)nc2c1 [Compound 11]
efficacy (minimal compound concentration needed to increase TFEB nuclear/cytosol ratio by 25%) (TFEB): +++ (“+++” equals ≤1 μM)
toxicity (compound concentration needed to induce greater than 50 percent of cell loss) (BEAS-2B cells): + (cell loss of greater than 50 percent at a concentration that equals or is greater than 25 μM was represented as)

c1cnc2nc(-c3cncs3)nc(Nc3ccc4[nH]ccc4c3)c2c1 [Compound 386]
efficacy (minimal compound concentration needed to increase TFEB nuclear/cytosol ratio by 25%) (TFEB): +++ (“+++” equals ≤1 μM)
toxicity (compound concentration needed to induce greater than 50 percent of cell loss) (BEAS-2B cells): + (cell loss of greater than 50 percent at a concentration that equals or is greater than 25 μM was represented as)

COc1ccc(-n2c(=O)c3ccc(C(=O)NCCc4ccccc4)cc3n(Cc3cccc(F)c3)c2=O)cc1 [Compound 215]
efficacy (minimal compound concentration needed to increase TFEB nuclear/cytosol ratio by 25%) (TFEB): ++ (“++” equals between ≤25 μM and >1 μM)
toxicity (compound concentration needed to induce greater than 50 percent of cell loss) (BEAS-2B cells): ++ (cell loss of greater than 50 percent at a concentration less than 25 μM and greater than 1 μM was represented as)

c1ccc2c(Nc3ccc4oncc4c3)nc(-c3cncs3)nc2c1 [Compound 394]
efficacy (minimal compound concentration needed to increase TFEB nuclear/cytosol ratio by 25%) (TFEB): + (“+” equals >25 μM)
toxicity (compound concentration needed to induce greater than 50 percent of cell loss) (BEAS-2B cells): + (cell loss of greater than 50 percent at a concentration that equals or is greater than 25 μM was represented as)

CCc1nc2ccc(Nc3nc(-c4ccncc4)nc4cc(F)ccc34)cc2s1 [Compound 366]
efficacy (minimal compound concentration needed to increase TFEB nuclear/cytosol ratio by 25%) (TFEB): + (“+” equals >25 μM)
toxicity (compound concentration needed to induce greater than 50 percent of cell loss) (BEAS-2B cells): + (cell loss of greater than 50 percent at a concentration that equals or is greater than 25 μM was represented as)

c1ccc2c(Nc3ccc4ncsc4c3)nc(-c3cncs3)nc2c1 [Compound 107]
efficacy (minimal compound concentration needed to increase TFEB nuclear/cytosol ratio by 25%) (TFEB): + (“+” equals >25 μM)
toxicity (compound concentration needed to induce greater than 50 percent of cell loss) (BEAS-2B cells): + (cell loss of greater than 50 percent at a concentration that equals or is greater than 25 μM was represented as)

Nc1c(Cl)cc(Nc2nc(-c3ccncc3)nc3ccccc23)cc1Cl [Compound 162]
efficacy (minimal compound concentration needed to increase TFEB nuclear/cytosol ratio by 25%) (TFEB): + (“+” equals >25 μM)
toxicity (compound concentration needed to induce greater than 50 percent of cell loss) (BEAS-2B cells): + (cell loss of greater than 50 percent at a concentration that equals or is greater than 25 μM was represented as)

O=c1[nH]c2ccc(Nc3nc(-c4ccncc4)nc4ccccc34)cc2[nH]1 [Compound 39]
efficacy (minimal compound concentration needed to increase TFEB nuclear/cytosol ratio by 25%) (TFEB): + (“+” equals >25 μM)
toxicity (compound concentration needed to induce greater than 50 percent of cell loss) (BEAS-2B cells): + (cell loss of greater than 50 percent at a concentration that equals or is greater than 25 μM was represented as)

CCc1nc2ccc(Nc3nc(-c4ccncc4)nc4ccccc34)cc2s1 [Compound 90]
efficacy (minimal compound concentration needed to increase TFEB nuclear/cytosol ratio by 25%) (TFEB): +++ (“+++” equals ≤1 μM)
toxicity (compound concentration needed to induce greater than 50 percent of cell loss) (BEAS-2B cells): + (cell loss of greater than 50 percent at a concentration that equals or is greater than 25 μM was represented as)

CC(C)c1nc2ccc(Nc3nc(-c4ccncc4)nc4ncccc34)cc2o1 [Compound 375]
efficacy (minimal compound concentration needed to increase TFEB nuclear/cytosol ratio by 25%) (TFEB): +++ (“+++” equals ≤1 μM)
toxicity (compound concentration needed to induce greater than 50 percent of cell loss) (BEAS-2B cells): + (cell loss of greater than 50 percent at a concentration that equals or is greater than 25 μM was represented as)

Cc1nc2ccc(Nc3nc(-c4ccncc4)nc4ccccc34)cc2o1 [Compound 34]
efficacy (minimal compound concentration needed to increase TFEB nuclear/cytosol ratio by 25%) (TFEB): +++ (“+++” equals ≤1 μM)
toxicity (compound concentration needed to induce greater than 50 percent of cell loss) (BEAS-2B cells): + (cell loss of greater than 50 percent at a concentration that equals or is greater than 25 μM was represented as)

Fc1cccc2c(Nc3ccc4[nH]ccc4c3)nc(-c3ccncc3)nc12 [Compound 108]
efficacy (minimal compound concentration needed to increase TFEB nuclear/cytosol ratio by 25%) (TFEB): +++ (“+++” equals ≤1 μM)
toxicity (compound concentration needed to induce greater than 50 percent of cell loss) (BEAS-2B cells): + (cell loss of greater than 50 percent at a concentration that equals or is greater than 25 μM was represented as)

COc1ccc2c(Nc3ccc4[nH]ccc4c3)nc(-c3ccncc3)nc2c1 [Compound 114]
efficacy (minimal compound concentration needed to increase TFEB nuclear/cytosol ratio by 25%) (TFEB): +++ (“+++” equals ≤1 μM)
toxicity (compound concentration needed to induce greater than 50 percent of cell loss) (BEAS-2B cells): ++ (cell loss of greater than 50 percent at a concentration less than 25 μM and greater than 1 μM was represented as)

CCCCc1nc2ccc(Nc3nc(-c4ccncc4)nc4ccccc34)cc2o1 [Compound 359]
efficacy (minimal compound concentration needed to increase TFEB nuclear/cytosol ratio by 25%) (TFEB): + (“+” equals >25 μM)
toxicity (compound concentration needed to induce greater than 50 percent of cell loss) (BEAS-2B cells): + (cell loss of greater than 50 percent at a concentration that equals or is greater than 25 μM was represented as)

Reference: patent publication US12286442B2, “Methods and materials for increasing transcription factor eb polypeptide levels” (University of Pittsburgh—Of the Commonwealth System of …, priority 2019, dated 2025)
